Reference: patent US20160250127A1, “USE OF A POLYOL IN THE REMINERALISATION OF ENAMEL” (ROQUETTE FRERES, priority 2013, published 2016)

Tested on: early carious lesions (enamel lesions of anterior maxillary teeth)
Assay: QLF analysis of enamel lesion remineralization, 6-month clinical study of sugar-free chewing gums
Assay type: in vivo, human
Details: for stopping and reversing the oral white lesions, compared with the two control groups: 6-month study; for ΔF compared with gumbase group and control group without gum: after 3 months, P<0.01; for ΔF compared with the two control groups (gumbase and no gum) / ΔQ compared with the two control groups (gumbase and no gum): after 6 months, p<0.01
Text: The QLF™ (Quantitative Light-induced Fluorescence) method is a dental diagnostic tool for the quantitative evaluation, in vivo and in vitro, of dental carious lesions. The apparatus is equipped with a camera and is connected to a computer (using a program specific to QLF™). The probe, which emits a blue light (xenon lamp+filter), is passed over the tooth tested, which retransmits this light in the form of fluorescence. […] This photograph or instantaneous image is then processed using the software of the QLF™ which then recreates a reconstituted image representing the carious lesion. With this method, the real-time fluorescent images are entered into the computer and stored in an image database. Quantitative analysis of the images allows the user to quantify parameters such as loss of minerals, lesion depth, lesion size, size of the spots present on the teeth and seriousness of the various lesions with great precision and repeatability. The QLF™ method is based on the autofluorescence of the teeth. When the teeth are illuminated by the high-intensity blue light, they will begin to emit light in the green part of the spectrum. The intensity of the fluorescence of the dental material is directly related to the mineral content of the enamel. Since the QLF™ method uses fluorescence to reveal the dental carie, the contrast between the demineralized enamel and the healthy enamel is increased. Thus, the absence of specular reflection in the images obtained by the QLF™ method facilitates the calculation of the size and seriousness of the lesion by the digital image processing system. Evaluation of the efficacy against caries of a sugar-free chewing gum containing maltitol sold by the applicant under the brand SweetPearl™ using a study model consisting of various appropriate control groups (gum and maltitol, gum and xylitol, gum without polyol and no chewing gum) and the QLF™ method. Children from 8 to 13 years old, in good health, were included in the study. Their parents were informed about the study by the teachers of the school and signed an informed consent form. […] In total, 420 pupils completed a six-month study. This study is a double-blind (subjects, caregivers and examiners), multicenter, parallel, random clinical study carried out in schools. The evaluation of the dental plaque uses the Silness method and the Loe index. The digital images were taken using a digital photographic apparatus, and those of the QLF™ method were taken using the QLF™ apparatus separately. Before this examination, all the dental plaque was removed from the surface of the teeth. All the procedures were supervised by qualified personnel (dentists/hygienists). The QLF™ method was used to monitor the evolution of demineralization and remineralization of the enamel lesions. During the visit, fluorescent images were taken of the six (or fewer) anterior maxillary teeth. An image of each tooth was taken at each visit in order to ensure that all the anterior teeth were photographed. All the images taken using the QLF™ apparatus were analyzed by an experienced individual in order to determine the “mineral condition” of each tooth, using proprietory software (QLF 2.00, Inspektor, The Netherlands). The QLF™ method makes it possible to control three distinct parameters: ΔF, the area of the lesion and ΔQ. ΔF is the percentage loss of fluorescence between the comparison of a healthy enamel and an identified lesion. The detection threshold for ΔF is 5%, which means that a loss of fluorescence below this threshold is considered to be background noise and therefore not significant. The area of the lesion is calculated by means of the pixels taken into account by the analysis software as representing the demineralized enamel (i.e. those with a loss of fluorescence of at least 5%). ΔQ is the product of ΔF multiplied by the area of the lesion and represents the volume of this lesion. […]

[1] = 3 Months, 2 chewing gums (up to 60% polyol) 5 times per day
[2] = 6 Months, 2 chewing gums (up to 60% polyol) 5 times per day
[3] = Baseline, children 8-13 years, mean ± spread

`OC[C@@H](O)[C@@H](O[C@H]1O[C@H](CO)[C@@H](O)[C@H](O)[C@H]1O)[C@H](O)[C@@H](O)CO` [Maltitol, maltitol] was tested, and the “QLF parameter Area (area of the lesion)” value [1] was 2.33 ± 1.90, the “QLF parameter ΔF (percentage loss of fluorescence)” value [1] was −8.78 ± 1.78 and the “QLF parameter ΔQ (ΔF multiplied by area of the lesion)” value (shortened to “QLF parameter ΔQ”) [1] was −20.62 ± 18.97. For the same compound, the “stopping and reversing the oral white lesions, compared with the two control groups” value was “significantly more effective”, the “QLF parameter Area (area of the lesion)” value [2] was 2.18 ± 1.63 and the “QLF parameter ΔF (percentage loss of fluorescence)” value [2] was −8.42 ± 1.87. The “QLF parameter ΔQ” value [2] was −16.69 ± 15.15, the “QLF parameter ΔF (percentage loss of fluorescence)” value (Baseline, children 8-13 years) was −9.38 ± 1.79 and the “QLF parameter ΔQ” value (Baseline, children 8-13 years) was −24.87 ± 23.06. For the same compound, the “QLF parameter Area (area of the lesion)” value [3] was 2.47 ± 1.95, the “ΔF compared with gumbase group and control group without gum” value was “significantly different” and the “ΔF compared with the two control groups (gumbase and no gum)” value was “considerable differences”. For the same compound, the “ΔQ compared with the two control groups (gumbase and no gum)” value was “considerable differences”.
For `OC[C@@H](O)[C@H](O)[C@@H](O)CO` [Xylitol, xylitol], the “QLF parameter Area (area of the lesion)” value [1] was 2.43 ± 1.72, the “QLF parameter ΔF (percentage loss of fluorescence)” value [1] was −8.56 ± 2.02 and the “QLF parameter ΔQ” value [1] was −22.10 ± 18.85. For the same compound, the “stopping and reversing the oral white lesions, compared with the two control groups” value was “significantly more effective”, the “QLF parameter Area (area of the lesion)” value [2] was 2.31 ± 1.85 and the “QLF parameter ΔF (percentage loss of fluorescence)” value [2] was −8.37 ± 1.78. For the same compound, the “QLF parameter ΔQ” value [2] was −18.19 ± 21.29, the “QLF parameter ΔF (percentage loss of fluorescence)” value (Baseline, children 8-13 years) was −9.36 ± 1.92 and the “QLF parameter ΔQ” value (Baseline, children 8-13 years) was −25.95 ± 24.66. The “QLF parameter Area (area of the lesion)” value [3] was 2.58 ± 1.91, the “ΔF compared with gumbase group and control group without gum” value was “significantly different” and the “ΔF compared with the two control groups (gumbase and no gum)” value was “considerable differences”. For the same compound, the “ΔQ compared with the two control groups (gumbase and no gum)” value was “considerable differences”.
